Data taken from patent US20250049789A1, “METHODS OF TREATING ALOPECIA ARAETA” (AbbVie Inc., priority 2023, published 2025).

Test system: alopecia areata
Experiment: Efficacy and safety of upadacitinib in AD patients with concomitant alopecia areata (SALT, AA-IGA)
Assay type: in vivo, human
Description: According to data reported in the patient clinical report forms by each investigator, all AD patients who were concomitantly suffering from alopecia areata at the baseline visit were identified. Medical records included demographic characteristics such as age, sex, occupation, smoking habits (smoker, former smoker, or non-smoker), AD history and severity, alopecia areata history and severity, prior treatments, atopic and non-atopic comorbidities, serum IgE levels, and concomitant therapies.
Patients were evaluated at baseline, and follow-up visits were scheduled after 4 weeks from baseline, and every 12 weeks thereafter. At baseline and at each follow-up visit, AD severity was assessed by Eczema Area and Severity Index (EASI) together with other tools. To evaluate severity and treatment response of alopecia areata, Severity of Alopecia Tool (SALT) and Alopecia Areata-Investigator Global Assessment (AA-IGA) were performed, as commonly used in daily practice. […] The SALT change throughout the observation period was recorded as the difference between the baseline SALT score and the SALT score value calculated at each follow-up visit (A SALT).
Qualitative and quantitative variables were described as relative frequencies (%), mean and standard deviation (or medians and interquartile ranges [IR], as appropriate), respectively. […] Data are reported and analysed “as observed”. […]

## CC[C@@H]1CN(C(=O)NCC(F)(F)F)C[C@@H]1c1cnc2cnc3[nH]ccc3n12 [upadacitinib, (3S,4R)-3-ethyl-4-(3H-imidazo[1,2-a]pyrrolo[2,3-e]pyrazin-8-yl)-N-(2,2,2-trifluoroethyl)pyrrolidine-1-carboxamide]
Multivariable regression, independent of baseline SALT and sex
  predicted SALT reduction for each 1-unit increase in the age of alopecia areata onset: 2.1 point
Upadacitinib 30 mg once daily, after 4 weeks of treatment
  patients with clinically meaningful hair regrowth (achievement of at least SALT 50 response): about 16%
